Assay: logP determination by HPLC (EEC Directive 79/831 Annexe V. A8, gradient method)
Assay type: physicochemical
Details: pH 2; read-out: log P (pH 2)

| Structure (SMILES) | chromatographic logP |
| --- | --- |
| CCc1nc(-c2ccc(OCc3ccccc3/C(=N\OC)C(=O)NC)c(C)c2)no1 [Example 4, N-methyl-2-[4-(5-ethyl-1,2,4-oxadiazol-3-yl)-2-methylphenoxy]methylphenylglyoxylamide O-methyl oxime] | 3.24 |
| COc1ccc(-c2nnn(C(C)(C)C)n2)cc1C [Example V-3] | 3.78 |
| CCc1nc(-c2ccc(OCc3ccccc3/C(=N\OC)C(=O)OC)c(C)c2)no1 [Example 3, methyl 2-[4-(5-ethyl-1,2,4-oxadiazol-3-yl)-2-methylphenoxy]methylphenylglyoxylate O-methyl oxime] | 3.8 |
| Cc1cc(-c2nnnn2C(F)F)ccc1O [Example III-8] | 1.75 |
| Cc1cc(-c2nnn(C(C)(C)C)n2)ccc1O [Example III-4] | 2.54 |
| COc1ccc(/C(N)=N/O)cc1C [Example VII-I, 3-methyl-4-methoxybenzamideoxime] | 0.36 |
| Cc1cc(-c2nnn(C)n2)ccc1O [Example III-1, 2-methyl-5-(3-methyl-4-hydroxyphenyl)tetrazole] | 1.45 |
| COc1ccc(-c2nnnn2C(F)F)cc1C [Example V-7] | 2.51 |
| C#CCn1nnnc1-c1ccc(O)c(C)c1 [Example III-6] | 1.41 |
| CNC(=O)/C(=N/OC)c1ccccc1COc1ccc(-c2nnn(C)n2)cc1C [Example 2, N-methyl-2-[4-(2-methyltetrazol-5-yl)-2-methylphenoxy]methylphenylglyoxylamide O-methyl oxime] | 2.58 |
| C#CCn1nnc(-c2ccc(O)c(C)c2)n1 [Example III-5] | 1.81 |
| Cc1cc(-c2nnn(C(F)F)n2)ccc1O [Example III-7] | 2.18 |
| CCc1nc(-c2ccc(O)c(C)c2)no1 [Example III-2, 5-ethyl-3-(3-methyl-4-hydroxyphenyl)-1,2,4-oxadiazole] | 2.08 |
| C#CCn1nnnc1-c1ccc(OC)c(C)c1 [Example V-5] | 2.12 |
| Cc1cc(-c2nc(C(F)(F)F)ns2)ccc1OCc1ccc(Cl)cc1 [Example V-9, 3-trifluoromethyl-5-[3-methyl-4-(4-chlorobenzyloxy)phenyl]-1,2,4-thiadiazole] | 5.78 |
| COc1ccc(-c2nnn(C)n2)cc1C [Example V-2, 2-methyl-5-(3-methyl-4-methoxyphenyl)tetrazole] | 2.38 |
| CO/N=C(/C(=O)OC)c1ccccc1COc1ccc(-c2nc(C(F)(F)F)ns2)cc1C [Example 5, methyl 2-[4-(3-trifluoromethyl-1,2,4-thiadiazol-5-yl)-2-methylphenoxy]methylphenylglyoxylate O-methyl oxime] | 4.62 |
| COc1ccc(-c2nnn(C(F)F)n2)cc1C [Example V-6] | 3.24 |
| CNC(=O)/C(=N/OC)c1ccccc1COc1ccc(-c2nc(C(F)(F)F)ns2)cc1C [Example 6, N-methyl-2-[4-(3-trifluoromethyl-1,2,4-thiadiazol-5-yl)-2-methylphenoxy]methylphenylglyoxylamide O-methyl oxime] | 4.08 |
| Cc1cc(-c2nnnn2C)ccc1O [1-methyl-5-(3-methyl-4-hydroxyphenyl)tetrazole] | 1.04 |
| CCc1nc(-c2ccc(OC)c(C)c2)no1 [Example V-8] | 3.19 |
| Cc1cc(-c2nc(C(F)(F)F)ns2)ccc1O [Example III-3, 3-trifluoromethyl-5-(3-methyl-4-hydroxyphenyl)-1,2,4-thiadiazole] | 3.1 |
| C#CCn1nnc(-c2ccc(OC)c(C)c2)n1 [Example V-44] | 2.75 |
| COc1ccc(-c2nn[nH]n2)cc1C [Example V-1, 5-(3-methyl-4-methoxyphenyl)tetrazole] | 1.51 |
| CO/N=C(/C(=O)OC)c1ccccc1COc1ccc(-c2nnn(C)n2)cc1C [Example 1, methyl 2-[4-(2-methyltetrazol-5-yl)-2-methylphenoxy]methylphenylglyoxylate O-methyl oxime] | 3.08 |
